Measured values reported in patent US20110123617A1, “CLIOQUINOL FOR THE TREATMENT OF HEMATOLOGICAL MALIGNANCIES” (priority 2007, published 2011).
“Also recorded” adds a separate entry of the source.

Legend:
[1] = system: AML3, U937, LP1 and MY5 cells; assay: Cell cycle analysis (PI staining and flow cytometry); format: cell-based; settings: low micromolar concentrations
Description: A) Effect of increasing concentrations of clioquinol on LP1 and MY5 multiple myeloma cells at twenty hours after clioquinol treatment; determined by SDS-PAGE immunoblotting. B) Effect of increasing concentrations of clioquinol on the G0/G1 ratio in AML3, U937, LP1 and MY5 cells at twenty hours after clioquinol treatment; determined by PI staining and flow cytometry. Cells were harvested, washed with cold PBS, suspended in 70% cold ethanol and incubated overnight at −20° C. Cells were then treated with 100 ng/ml of DNase-free RNase (InvitroGen) at 37° C. for 30 min, washed with cold PBS, and resuspended in PBS with 50 μg/ml of propidium iodine. DNA content was analyzed by flow cytometry (FACSCalibur, Becton Dickinson, Fla., USA). The percentage of cells in each phase of the cell cycle was calculated with ModiFit software (Becton Dickinson).

[2] = system: proteasome in normal hematopoietic cells; assay: Proteasome activity in normal hematopoietic cells (PBSC); format: cell-based, human
Description: Proteasome activity of primary acute myeloid leukemia (AML) blasts or normal peripheral blood stem cells (PBSC) after twenty hours of treatment with clioquinol (CQ), or an equimolar concentration of […] and CuCl2 (Cu). After treatment, the preferential chymotrypsin-like substrate Suc-LLVY-AMC was added and the rate of free AMC was measured over time with a florescent spectrophotometric plate reader (excitation=380 nm, emission=460 nm). Cellular proteins were extracted from cells with lysis buffer (50 mM HEPES pH 7.5, 150 mM NaCl, 2 mM ATP, and 1% Triton X-100). The chymotrypsin-like activity of the proteasome was measured by incubating equal amounts of protein with the preferential chymotrypsin-like substrate Suc-LLVY-AMC in assay buffer (50 mM Tris-HCl, pH 7.5, 150 mM NaCl) for two hours. After incubation, […] and the rate of free AMC was measured over time with a florescent spectrophotometric plate reader (excitation=380 nm, emission=460 nm). The inventors examined the effect of clioquinol and copper on primary AML cells and normal hematopoietic cells. Primary AML were obtained from the peripheral blood of patients with AML. Normal hematopoietic stem cells (PBSC) were obtained from the peripheral blood of volunteers donating stem cells for allotransplant. […] After incubation, cell lysates were prepared and the enzymatic activity of the proteasome measured as above.

[3] = system: normal hematopoietic cells; assay: Cell viability (MTS assay), primary normal hematopoietic cells; format: cell-based, human; settings: normal hematopoietic cells supplemented with copper
Description: Cell viability of leukemia, myeloma, solid tumor and primary cells forty-eight hours after clioquinol treatment by MTS assay. Cell viability was assessed with the CellTiter96® Aqueous Non-Radioactive Assay kit according to manufactures' instructions (Promega). Apoptosis was measured by flow cytometry to detect cell surface Annexin V expression and propidium iodide (PI) uptake (Biovision, Mountain View, Calif., USA) as previously described (20) The inventors tested the effects of clioquinol on the viability of acute leukemia (n=7), myeloma (n=14), and solid tumor (n=5) cell lines as well as primary AML samples (n=6) and primary normal hematopoietic cells (n=3). Forty-eight hours after incubation, clioquinol induced cell death in 6/7 AML, 12/14 myeloma, 0/5 solid tumor, […] and 0/3 normal hematopoietic cells with an IC50 <20 μM (FIG. 5). Of note, after oral administration of clioquinol, trough serum concentrations of 20 μM can be achieved in patients (32).

cyclin D2 promoter = assay: High throughput screen for inhibitors of cyclin D2 transactivation (luciferase assay); format: cell-based, mouse; settings: NIH 3T3 cells over-expressing c-maf, ~5 μM, sixteen hours
Excerpt: The promoter of cyclin D2 (−894 to −4), containing c-maf responsive element sequence (MARE), was cloned from HeLa cell genomic DNA and subcloned into the pGL2 luciferase reporter vector (Promega, Madison, Wis.). This construct was co-transfected with pcDNA3.1 containing a neomycin resistance gene into NIH3T3 wild type cells and NIH3T3 cells stably over-expressing c-maf-IRES-GFP. Cells stably expressing c-maf, GFP, and luciferase were selected for further application. NIH3T3 cells stably expressing c-maf and the cyclin D2 promoter driving luciferase (13,000 cells per well) were plated in 96-well plates by the Biomek FX liquid handler (Beckman, Fullerton, Calif.). The same workstation was used for plate formatting and reagent distribution. […] After incubation, cyclin D2 transactivation was assessed by the luciferase assay and viability was assessed by the MTS assay. Luciferase activity was assessed according to the manufacturer's instructions (Promega, Madison, Wis.). […] After 10 min incubation, an equal volume of Bright-Glo Luciferase substrate (Promega) was added and the luminescence signal was detected with a 96-well Luminoskan luminescence plate reader (Thermo Labsystem, Waltham, Mass.) with a 5 second integration. […] Sixteen hours after the addition of the compounds, luciferase expression was measured as a marker of cyclin D2 transactivation. […]

Oc1c(I)cc(Cl)c2cccnc12 [clioquinol, 5-chloro-7-iodo-8-hydroxyquinoline] was tested, and the cell cycle arrest [1] was “arrested cells in the G1 phase”, the “enzymatic activity of the proteasome” value [2] was “no effect; also recorded: no proteasomal inhibition was detected” and the potency of clioquinol [3] was “increased the potency of clioquinol”. For the same molecule, the “cyclin D2 transactivation (luciferase expression)” value (cyclin D2 promoter) was “c-maf independent inhibitors of the cyclin D2 promoter”.
